Measurements as given in patent US20110306597A1, “Nicotinamide Derivatives” (priority 2008, published 2011).

Target: human recombinant H-PGDS (Homo sapiens, UniProt O60760)
Assay: Slightly modified h-PGDS TBA enzyme assay (Examples 529, 565, 566, 574-588 and 591)
Type: biochemical
Conditions: slightly modified assay (Examples 529, 565, 566, 574-588 and 591); 1:40,000 human recombinant H-PGDS
Protocol: Prostaglandin D Synthase (PGDS) converts the substrate prostaglandin H2 (PGH2) to prostaglandin D2. The depletion of PGH2 was measured via an Fe(II) reduction of the remaining PGH2 to malondialdehyde (MDA) and 12-HHT. The enzyme assay is based on the quantitative formation of a fluorescent complex from the non-fluorescent compounds MDA and 2-thiobarbituric acid (TBA), substantially as described in U.S. patent application publication US-2004/152148 by Lombardt.
Examples 529, 565, 566, 574-588 and 591 were tested in a slightly modified assay: The enzyme assay (30 μls during biological process) contained 100 mM Trizma pH 8.0, 100 μM MgCl2, 0.1 mg/ml IgG Rabbit serum, 5.0 μM PGH2 (Cayman; ethanol solution, #17020), 2.5 mM L-Glutathione (Sigma; reduced form #G4251), 1:40,000 human recombinant H-PGDS (from 1 mg/ml), 0.5% DMSO and inhibitor (varying concentration). 3 μls of diluted inhibitor (dissolved in DMSO) was plated into a 384-well assay plate followed by a 24 μl addition of an enzyme solution containing h-PGDS, Trizma, MgCl2, IgG and L-Glutathione. After pre-incubation of inhibitor and enzyme solution for 10 minutes at room temperature, the reaction was initiated with a 3 μl addition of substrate solution in 10 mM HCl. The reaction was terminated after 40 second by the addition of 3 μl stop buffer containing FeCl2 and citric acid. After addition of 45 μls of TBA plates were heated for one hour in a 70° C. oven. Plates were cooled at room temperature overnight and read on a plate reader the next day with excitation @ 530 nm and emission @ 560 nm. IC50's of inhibitors were calculated with a 4-parameter fit using 11 inhibitor concentrations in duplicate with ½ log serial dilutions. Controls on each plate included no inhibitor (zero % effect) and an inhibitor 500-fold in excess of its' IC50 (100% effect). The highest inhibitor concentration tested was typically 10 μM.

Chain of human recombinant H-PGDS (O60760 whole entry): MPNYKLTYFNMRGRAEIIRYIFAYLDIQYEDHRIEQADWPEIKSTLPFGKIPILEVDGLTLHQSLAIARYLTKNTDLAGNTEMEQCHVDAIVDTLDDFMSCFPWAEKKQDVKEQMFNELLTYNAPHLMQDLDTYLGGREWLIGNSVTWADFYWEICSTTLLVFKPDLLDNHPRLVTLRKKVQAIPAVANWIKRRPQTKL

IC50 [nM] | SMILES
128 | O=C(NCC1CC1)c1ccc(-c2cccc(F)c2)nc1 [Example 579, N-(Cyclopropylmethyl)-6-(3-fluorophenyl)nicotinamide]
93.4 | CCCNC(=O)c1ccc(-c2cccc(F)c2)nc1 [Example 576, 6-(3-Fluorophenyl)-N-propylnicotinamide]
222 | CCNC(=O)c1ccc(-c2cccc(F)c2)nc1 [Example 580, N-Ethyl-6-(3-fluorophenyl)nicotinamide]

The next lines start with the compound.

SMILES | IC50 [nM]
O=C(NCCN1CCCC1)c1ccc(-c2cccc(F)c2)nc1 [Example 574, 6-(3-Fluorophenyl)-N-(2-pyrrolidin-1-ylethyl)nicotinamide] | 1200
O=C(O)CCNC(=O)c1ccc(-c2cccc(F)c2)nc1 [Example 581, N-{[6-(3-Fluorophenyl)pyridin-3-yl]carbonyl}-beta-alanine] | 197
O=C(N[C@H]1[C@@H]2CN(c3ncccn3)C[C@@H]21)c1ccc(-c2cccc(F)c2)nc1 [Example 529, 6-(3-Fluorophenyl)-N-[(1R,5S,6s)-3-pyrimidin-2-yl-3-azabicyclo[3.1.0]hex-6-yl]nicotinamide] | 11.3
CC(C)(C)OC(=O)N1[C@@H]2CC[C@H]1C[C@@H](NC(=O)c1ccc(-c3cccc(F)c3)nc1)C2 [Example 586, tert-Butyl (3-endo)-3-({[6-(3-fluorophenyl)pyridin-3-yl]carbonyl}amino)-8-azabicyclo[3.2.1]octane-8-carboxylate] | 8.78
CC(C)(C)OC(=O)N1[C@@H]2CC[C@H]1C[C@H](NC(=O)c1ccc(-c3cccc(F)c3)nc1)C2 [Example 588, tert-Butyl (3-exo)-3-({[6-(3-fluorophenyl)pyridin-3-yl]carbonyl}amino)-8-azabicyclo[3.2.1]octane-8-carboxylate] | 15.4
CCCN1[C@@H]2CC[C@H]1C[C@@H](NC(=O)c1ccc(-c3cccc(F)c3)nc1)C2 [Example 585, 6-(3-Fluorophenyl)-N-[(3-endo)-8-propyl-8-azabicyclo[3.2.1]oct-3-yl]nicotinamide] | 176
O=C(N[C@H]1C[C@H]2CC[C@@H](C1)N2)c1ccc(-c2cccc(F)c2)nc1 [Example 584, N-[(3-endo)-8-azabicyclo[3.2.1]oct-3-yl]-6-(3-fluorophenyl)nicotinamide] | 196
O=C(N[C@@H]1C[C@H]2CC[C@@H](C1)N2)c1ccc(-c2cccc(F)c2)nc1 [Example 587, N-[(3-exo)-8-azabicyclo[3.2.1]oct-3-yl]-6-(3-fluorophenyl)nicotinamide] | 39.2
